# Laboratory results published in patent US9901536B2, “Composition for improving skin, containing pomegranate concentrate as active ingredient” (HLSCIENCE CO., LTD., priority 2014, dated 2018).
# “And” between values parts separate entries of the source, which are not always exact repeats. Equal entries are not always repeated.
# Legend:
# [1] = test system: procollagen synthesis in HDF-N cells; test: Procollagen synthesis (PIP EIA) in HDF-N cells; type: cell-based, human; conditions: 10 ng/ml, 24 h
# Method: (§1) For testing of wrinkle improvement, normal human primary dermal fibroblasts, neonatal (HDF-N) derived from the human neonatal foreskin were used. The cells were seeded onto the bottom of a culture dish and cultured at 37° C. in a 5% carbon dioxide incubator after adding the fibroblast basal medium (FBM, Lonza, CC-3131) containing 0.1% insulin, 0.1% rhFGF, 0.1% gentamicin and 2% FBS.
# In order to measure the effect of promoting procollagen synthesis of the test solution, HDF-N cells were seeded onto a 48-well plate with 1×10^4 cells/well and then cultured for 24 hours. Then, after maintaining a starvation state for 24 hours, the cells were treated with the test solution diluted with the cell culture medium FBM (without supplements) at different concentrations and then cultured for 24 hours. The cultured cells were recovered and the quantity of procollagen was measured using the procollagen type I c-peptide (PIP) EIA kit (Takara, MK101). The cells adherent to the bottom were washed with PBS and lysed with 1 N NaOH to determine the total amount of proteins. Then, the quantity of procollagen per given quantity of proteins was calculated.
# [2] = test system: hyaluronan synthesis in HaCaT cells; test: Hyaluronan synthesis in keratinocytes by ELISA; type: cell-based, human; conditions: 20 mM, 24 h
# Method: Human keratinocytes (HaCaT cells, ATCC) were seeded onto the bottom of a culture dish and cultured at 37° C. in a 5% carbon dioxide incubator after adding Dulbecco's modified Eagle's medium (DMEM, Welgene, Korea) containing penicillin (100 IU/mL), streptomycin (10 μg/mL) and 10% FBS.
# The skin-moisturizing effect of the samples was evaluated by measuring the degree of hyaluronan synthesis in keratinocytes by ELISA. For this, the HaCaT cells were seeded onto a plate at 5×10^4 cells/well and cultured for 24 hours. 24 hours later, the cells were treated with the test samples diluted with the DMEM cell culture medium (without supplements) and cultured for 24 hours. The cultured cells were recovered and the quantity of hyaluronan was measured by hyaluronan ELISA (R&D Systems, DY3614). The cells adherent to the bottom were washed with PBS and lysed with 1 N NaOH to determine the total amount of proteins. Then, the quantity of hyaluronan per given quantity of proteins was calculated.
# The protein quantity was measured using a Bio-Rad DC protein kit according to the Lowry method.
# elastase = test: Elastase inhibition assay; type: biochemical, human; conditions: 10 μM
# Method: The HDF-N fibroblasts were used to measure the effect of the test solution on elastase activity. For this, the cultured HDF-N cells were treated with 0.2 M Tris-HCl (pH 8.0) containing 0.1% Triton X-100 and lysed by sonication. After centrifuging at 3,000 rpm for 20 minutes and taking the supernatant, the activity of the enzyme was measured by quantifying it and the total protein quantity. For measurement of the elastase activity, the homogenized fibroblasts were treated with 200 μg/mL elastase, 0.2 M Tris-HCl buffer and the sample at different concentrations. After adding 50 mM STANA, a substrate specific for elastase, and incubating at 37° C., absorbance was measured at 405 nm. The degree of elastase activity inhibition was compared with a control group not treated with the test solution. Phosphoramidon was used as a positive control group.
# MMP-1 = test: Inhibition of UV-induced MMP-1 expression in HDF-N cells; type: cell-based, human; conditions: UVA 5 J/cm^2, 1 μM
# Method: as §1
# The effect of the test solution on UV-induced MMP-1 expression was evaluated in order to evaluate the wrinkle-improving effect of the sample by measuring the activity of matrix metalloproteinase (MMP-1) by immuno-ELISA assay. HDF-N cells were seeded onto a 24-well plate with 2×10^4 cells/well and then cultured for 24 hours. 24 hours later, after discarding the medium and washing with DPBS, 200 μL of DPBS was added and 5 J/cm^2 of UV-A was irradiated. After treating the cells with the sample diluted to an adequate concentration, the cells were cultured for 24 hours. Then, the culture medium was taken and the quantity of MMP-1 was measured with the human total MMP-1 ELISA kit (R&D Systems, DY901). The measured quantity of MMP-1 was calibrated with the total protein quantity.
# [3] = test system: melanin synthesis in Melan-a cells; test: Inhibition of melanin synthesis in Melan-a cells; type: cell-based, mouse; conditions: 100 μM, 6 days
# Method: For evaluation of skin-whitening effect, Melan-a cells derived from C57BL/6J (black, a/a) mouse, provided by Dr. Dorothy C Benette (St George's Hospital, London, UK), were used as an immortalized cell line (Bennett D C, Cooper P J, Hart I R. A line of non-tumorigenic mouse melanocyte, syngeneic with the B16 melanoma and requiring a tumor promoter for growth. Int J Cancer 1987; 39: 414-418). The cells were cultured at 37° C. in a 5% carbon dioxide incubator after adding the RPMI 1640 medium containing 10% fetal bovine serum, 50 U/mL penicillin, 50 μg/mL streptomycin, 200 nM phorbol 12-myristate 13-acetate (PMA).
# Melan-a cells were seeded onto a 24-well plate with 3×10^4 cells/well. After culturing the cells in an incubator for 24 hours so that the cells adhered well to the plate, the test solution diluted with a culture medium to different concentrations were added to the respective wells. The test sample was treated once in 3 days, for a total of 6 days. […] The cells were lysed with 1 N NaOH and then centrifuged. After separating the supernatant, the total amount of proteins was quantified by measuring absorbance at 405 nm. The melanin content was determined from the protein quantity.
molecule,measurement,setting,value
Transforming growth factor-β [TGF-β],"procollagen production, % control",[1],150.8 % control and 150.88 ± 5.366 % control
"CC(=O)N[C@H]1C(O)O[C@H](CO)[C@@H](O)[C@@H]1O (stereo partly drawn) [NAG, N-Acetyl-D-glucosamine]","hyaluronan, % control",[2],224.8 % control and 224.85 ± 16.937 % control
CC(C)C[C@H](NP(=O)(O)O[C@@H]1O[C@@H](C)[C@H](O)[C@@H](O)[C@H]1O)C(=O)N[C@@H](Cc1c[nH]c2ccccc12)C(=O)O [Phosphoramidon],"elastase activity, % control",elastase,74.90 ± 5.962 % control
same,"elastase activity, % control",elastase; listed as phosphoramidon,74.9 % control
CC1=C(/C=C/C(C)=C/C=C/C(C)=C/C(=O)O)C(C)(C)CCC1 [Retinoic acid],"MMP-1 production, % UV−",MMP-1,171.68 ± 10.422 % UV−
same,"MMP-1 production, % UV−",MMP-1; listed as retinoic acid,171.6 % UV−
OC[C@H]1O[C@@H](Oc2ccc(O)cc2)[C@H](O)[C@@H](O)[C@@H]1O [Arbutin],"melanin content, % control",[3],73.54 ± 5.397 % control
same,"melanin content, % control",[3]; listed as arbutin,melanin synthesis was inhibited
